Here are results for 17 compounds from ChEMBL document CHEMBL2203107, “Microwave-assisted synthesis and in vitro antibacterial activity of novel steroidal thiosemicarbazone derivatives” (Bioorg Med Chem Lett, 2012).

Each structure is given as a SMILES string. Values after ≈ are worked out from the molar mass of the structure shown.

Assay [1] relates to Pseudomonas aeruginosa. Description: Antibacterial activity against Pseudomonas aeruginosa after 18 hrs by macrodilution method. The class given is functional.
In assay [2] the test system is Bacillus subtilis. Description: Antibacterial activity against Bacillus subtilis after 18 hrs by macrodilution method. The class given is functional.
Assay [3] concerns Staphylococcus aureus. Kind of assay: Antibacterial activity against Staphylococcus aureus after 18 hrs by macrodilution method. The class given is functional.
For assay [4], the system named is Staphylococcus aureus. Description: Antibacterial activity against Staphylococcus aureus. The class given is functional, organism-based.

As a reminder, the MIC is the smallest concentration in the dilution series that meets the test's criterion for growth inhibition. With `COC(=O)CC[C@@H](C)[C@H]1CC[C@H]2[C@@H]3C(=O)C[C@@H]4C/C(=N/NC(=S)Nc5ccc(F)cc5)CC[C@]4(C)[C@H]3CC[C@]12C`, the MIC in assay [1], in assay [2] and in assay [3] was 128 µg/mL (≈ 225 µM) throughout.
For the compound `COC(=O)CC[C@@H](C)[C@H]1CC[C@H]2[C@@H]3/C(=N/NC(=S)Nc4ccccc4)C[C@@H]4C/C(=N/NC(=S)Nc5ccccc5)CC[C@]4(C)[C@H]3CC[C@]12C`, the MIC in assay [1] is 8 µg/mL (≈ 11.4 µM); in assay [2], 128 µg/mL (≈ 183 µM); in assay [3], over 128 µg/mL.
For `COC(=O)CC[C@@H](C)[C@H]1CC[C@H]2[C@@H]3C(=O)C[C@@H]4C/C(=N/NC(=S)Nc5ccc(C)cc5)CC[C@]4(C)[C@H]3CC[C@]12C`, the MIC in assay [1] is 16 µg/mL (≈ 28.3 µM); in assay [2] it was 32 µg/mL (≈ 56.6 µM); in assay [3], over 128 µg/mL.
The IC50 is the point on the concentration scale where inhibition reaches its midpoint. Take `COC(=O)CC[C@@H](C)[C@H]1CC[C@H]2[C@@H]3/C(=N/NC(=S)Nc4ccc(Br)cc4)C[C@@H]4C/C(=N/NC(=S)Nc5ccc(Br)cc5)CC[C@]4(C)[C@H]3CC[C@]12C`: the IC50 in assay [4] was 2.85 µg/mL (≈ 3.32 µM). Moreover, the MIC is 16 µg/mL (≈ 18.6 µM) in assay [1], over 128 µg/mL in assay [2] and 32 µg/mL (≈ 37.3 µM) in assay [3].
Turning to `COC(=O)CC[C@@H](C)[C@H]1CC[C@H]2[C@@H]3C(=O)C[C@@H]4C/C(=N/NC(=S)Nc5ccc(OC)cc5)CC[C@]4(C)[C@H]3CC[C@]12C`, the minimum inhibitory concentration (MIC) in assay [1] came to 128 µg/mL (≈ 220 µM); in assay [2] it was 32 µg/mL (≈ 55 µM); in assay [3], 128 µg/mL (≈ 220 µM).
In the case of `COC(=O)CC[C@@H](C)[C@H]1CC[C@H]2[C@@H]3CC[C@@H]4C/C(=N/NC(=S)Nc5ccc(OC)cc5)CC[C@]4(C)[C@H]3CC(=O)[C@]12C`, the values for the MIC in assay [1], in assay [2] and in assay [3] were 2 µg/mL (≈ 3.44 µM), over 128 µg/mL and over 128 µg/mL, respectively.
On to `COC(=O)CC[C@@H](C)[C@H]1CC[C@H]2[C@@H]3/C(=N/NC(=S)Nc4cccc(F)c4)C[C@@H]4C/C(=N/NC(=S)Nc5cccc(F)c5)CC[C@]4(C)[C@H]3CC[C@]12C`, for which, in assay [4], the IC50 is 1.02 µg/mL (≈ 1.38 µM). For the same compound, the MIC turned out to be 32 µg/mL (≈ 43.4 µM) in assay [1], 8 µg/mL (≈ 10.9 µM) in assay [2] and 8 µg/mL (≈ 10.9 µM) in assay [3].
With `COC(=O)CC[C@@H](C)[C@H]1CC[C@H]2[C@@H]3C(=O)C[C@@H]4C/C(=N/NC(=S)Nc5cccc6ccccc56)CC[C@]4(C)[C@H]3CC[C@]12C`, the MIC is 16 µg/mL (≈ 26.6 µM) in assay [1], 32 µg/mL (≈ 53.2 µM) in assay [2] and over 128 µg/mL in assay [3].
Take `COC(=O)CC[C@@H](C)[C@H]1CC[C@H]2[C@@H]3CC[C@@H]4C/C(=N/NC(=S)Nc5ccccc5)CC[C@]4(C)[C@H]3CC(=O)[C@]12C`: the MIC in assay [1] was 32 µg/mL (≈ 58 µM); in assay [2], 64 µg/mL (≈ 116 µM); in assay [3], over 128 µg/mL.
Taken in the same sequence, the figures for `COC(=O)CC[C@@H](C)[C@H]1CC[C@H]2[C@@H]3C/C(=N/NC(=S)Nc4ccc(Br)cc4)[C@@H]4C/C(=N/NC(=S)Nc5ccc(Br)cc5)CC[C@]4(C)[C@H]3CC[C@]12C` were 2 µg/mL (≈ 2.33 µM), 128 µg/mL (≈ 149 µM) and 64 µg/mL (≈ 74.5 µM).
Compound `CC1(C)S[C@@H]2[C@H](NC(=O)[C@H](N)c3ccc(O)cc3)C(=O)N2[C@H]1C(=O)O` [AMOXICILLIN] displayed an IC50 in assay [4] of 2.84 µg/mL (≈ 7.77 µM). In addition, the minimum inhibitory concentration (MIC) in assay [1] is 2 µg/mL (≈ 5.47 µM); in assay [2], 16 µg/mL (≈ 43.8 µM); in assay [3] it was 32 µg/mL (≈ 87.6 µM).
`COC(=O)CC[C@@H](C)[C@H]1CC[C@H]2[C@@H]3C/C(=N/NC(=S)Nc4ccc(OC)cc4)[C@@H]4C/C(=N/NC(=S)Nc5ccc(OC)cc5)CC[C@]4(C)[C@H]3CC[C@]12C`: the values for the minimum inhibitory concentration (MIC) in assay [1], in assay [2] and in assay [3] were 4 µg/mL (≈ 5.26 µM), 128 µg/mL (≈ 168 µM) and 32 µg/mL (≈ 42 µM), respectively.
For `COC(=O)CC[C@@H](C)[C@H]1CC[C@H]2[C@@H]3CC[C@@H]4C/C(=N/NC(=S)Nc5ccc(F)cc5)CC[C@]4(C)[C@H]3CC(=O)[C@]12C` the same measures were 4 µg/mL (≈ 7.02 µM), over 128 µg/mL and over 128 µg/mL.
Taken in the same sequence, the figures for `COC(=O)CC[C@@H](C)[C@H]1CC[C@H]2[C@@H]3C/C(=N/NC(=S)Nc4cccc(F)c4)[C@@H]4C/C(=N/NC(=S)Nc5cccc(F)c5)CC[C@]4(C)[C@H]3CC[C@]12C` were 128 µg/mL (≈ 174 µM), 128 µg/mL (≈ 174 µM) and 32 µg/mL (≈ 43.4 µM).
Compound `COC(=O)CC[C@@H](C)[C@H]1CC[C@H]2[C@@H]3/C(=N/NC(=S)Nc4ccc(OC)cc4)C[C@@H]4C/C(=N/NC(=S)Nc5ccc(OC)cc5)CC[C@]4(C)[C@H]3CC[C@]12C` showed an IC50 in assay [4] of 3.25 µg/mL (≈ 4.27 µM). In addition, the MIC in assay [1] is 4 µg/mL (≈ 5.26 µM); in assay [2] it was over 128 µg/mL; in assay [3], 64 µg/mL (≈ 84.1 µM).
Take `COC(=O)CC[C@@H](C)[C@H]1CC[C@H]2[C@@H]3C/C(=N/NC(=S)Nc4ccc(C)cc4)[C@@H]4C/C(=N/NC(=S)Nc5ccc(C)cc5)CC[C@]4(C)[C@H]3CC[C@]12C`: the MIC in assay [1] turned out to be 4 µg/mL (≈ 5.49 µM); in assay [2], 128 µg/mL (≈ 176 µM); in assay [3], 128 µg/mL (≈ 176 µM).
For `COC(=O)CC[C@@H](C)[C@H]1CC[C@H]2[C@@H]3CC[C@@H]4C/C(=N/NC(=S)Nc5ccc(Br)cc5)CC[C@]4(C)[C@H]3CC(=O)[C@]12C`, the MIC in assay [1] was 2 µg/mL (≈ 3.17 µM); in assay [2], over 128 µg/mL; in assay [3] it was over 128 µg/mL.
